Source: patent US20130171098A1, “Cyclopropyl Fused Indolobenzazepine HCV NS5B Inhibitors” (priority 2006, published 2013)
Like-named read-outs stand apart in the source and are kept apart here.

Assays:
[1] = biological target: T1, HCV NS5B RdRp genotype 1b (Hepatitis C virus genotype 1b, UniProt Q9WMX2); assay: HCV NS5B RdRp enzyme assay (standard / modified); type: biochemical
T1 construct: The protein was expressed with an 18 amino acid C-terminal truncation to enhance the solubility; made in house; host or cells: E. coli BL21(DE3), pET21a vector
Protocol: HCV NS5B RdRp Cloning, Expression, and Purification.
The cDNA encoding the NS5B protein of HCV, genotype 1b, was cloned into the pET21a expression vector. The protein was expressed with an 18 amino acid C-terminal truncation to enhance the solubility. The E. coli competent cell line BL21(DE3) was used for expression of the protein. Cultures were grown at 37° C. for ˜4 hours until the cultures reached an optical density of 2.0 at 600 nm. The cultures were cooled to 20° C. and induced with 1 mM IPTG. Fresh ampicillin was added to a final concentration of 50 μg/ml and the cells were grown overnight at 20° C.
The lysis buffer consisted of 20 mM Tris-HCl, pH 7.4, 500 mM NaCl, 0.5% triton X-100, 1 mM DTT, 1 mM EDTA, 20% glycerol, 0.5 mg/ml lysozyme, 10 mM MgCl2, 15 ug/ml deoxyribonuclease I, and Complete TM protease inhibitor tablets (Roche). After addition of the lysis buffer, frozen cell pellets were resuspended using a tissue homogenizer. To reduce the viscosity of the sample, aliquots of the lysate were sonicated on ice using a microtip attached to a Branson sonicator. The sonicated lysate was centrifuged at 100,000×g for 1 hr at 4° C. and filtered through a 0.2 μm filter unit (Corning).
The protein was purified using two sequential chromatography steps: Heparin sepharose CL-6B and polyU sepharose 4B (Pharmacia). The chromatography buffers were identical to the lysis buffer but contained no lysozyme, deoxyribonuclease I, MgCl2 or protease inhibitor and the NaCl concentration of the buffer was adjusted according to the requirements for charging the protein onto the column. Each column was eluted with a NaCl gradient which varied in length from 5-50 column volumes depending on the column type. […] The enzyme was aliquoted and stored at −80° C.
Standard HCV NS5B RdRp Enzyme Assay.
HCV RdRp genotype 1b assays were run in a final volume of 60 μl in 96 well plates (Corning 3600). The assay buffer is composed of 20 mM Hepes, pH 7.5, 2.5 mM KCl, 2.5 mM MgCl2, 1 mM DTT, 1.6 U RNAse inhibitor (Promega N2515), 0.01 mg/ml BSA (Sigma B6917), and 2% glycerol. All compounds were serially diluted (3-fold) in DMSO and diluted further in water such that the final concentration of DMSO in the assay was 2%. HCV RdRp genotype 1b enzyme was used at a final concentration of 28 nM. A polyA template was used at 6 nM, and a biotinylated oligo-dT12 primer was used at 180 nM final concentration. Template was obtained commercially (Amersham 27-4110). Biotinylated primer was prepared by Sigma Genosys. 3H-UTP was used at 0.6 μCi (0.29 μM total UTP). Reactions were initiated by the addition of enzyme, incubated at 30° C. for 60 min, and stopped by adding 25 μl of 50 mM EDTA containing SPA beads (4 μg/μl, Amersham RPNQ 0007). Plates were read on a Packard Top Count NXT after >1 hr incubation at room temperature.
Modified HCV NS5B RdRp Enzyme Assay.
A modified enzyme assay was performed essentially as described for the standard enzyme assay except for the following: The biotinylated oligo dT12 primer was precaptured on streptavidin-coated SPA beads by mixing primer and beads in assay buffer and incubating at room temperature for one hour. Unbound primer was removed after centrifugation. The primer-bound beads were resuspended in 20 mM Hepes buffer, pH 7.5 and used in the assay at final concentrations of 20 nM primer and 0.67 μg/μl beads. Order of addition in the assay: enzyme (1.75 nM) was added to diluted compound followed by the addition of a mixture of template (0.36 nM), 3H-UTP (0.6 μCi, 0.29 μM), and primer-bound beads, to initiate the reaction; concentrations given are final. Reactions were allowed to proceed for 4 hours at 30° C.
IC50 values for compounds were determined using seven different [I].

HCV replicon cells = assay: HCV replicon FRET / luciferase assay; type: cell-based, Hepatitis C virus
Protocol: The HCV FRET screening assay was performed in 96-well cell culture plates. The FRET peptide (Anaspec, Inc.) (Taliani et al., Anal. Biochem. 1996, 240, 60-67) contains a fluorescence donor, EDANS, near one end of the peptide and an acceptor, DABCYL, near the other end. The fluorescence of the peptide is quenched by […] resonance energy transfer (RET) between the donor and the acceptor, but as the NS3 protease cleaves the peptide the products are released from RET quenching and the fluorescence of the donor becomes apparent. The assay reagent was made as follows: 5× cell Luciferase cell culture lysis reagent from Promega (#E153A) diluted to 1× with dH2O, NaCl added to 150 mM final, the FRET peptide diluted to 20 μM final from a 2 mM stock.
To prepare plates, HCV replicon cells, with or without a Renilla luciferase reporter gene, were trypsinized and plated in a 96-well plate with titrated test compounds added in columns 3 through 12; columns 1 and 2 contained a control compound (HCV control inhibitor), and the bottom row contained cells with DMSO only. The plates were then placed in a CO2 incubator at 37° C.
Subsequent to addition of the test compounds described above (FRET Assay Preparation), at various times the plate was removed and Alamar blue solution (Trek Diagnostics, #00-100) was added to measure cellular toxicity. After reading in a Cytoflour 4000 instrument (PE Biosystems), plates were rinsed with PBS and then used for FRET assay by the addition of 30 ul of the FRET peptide assay reagent described above (FRET Assay Preparation) per well. The plate was then placed into the Cytoflour 4000 instrument which had been set to 340 excite/490 emission, automatic mode for up to 20 cycles and the plate read in a kinetic mode. Typically, the signal to noise using an endpoint analysis after the reads was at least three-fold. Alternatively, after Alamar blue reading, plates were rinsed with PBS, then used for luciferase assay using the Promega Dual-Glo Luciferase Assay System or the Promega EnduRen Live Cell Substrate assay.
Compound analysis was performed by quantification of the relative HCV replicon inhibition and the relative cytotoxicity values. To calculate cytoxicity values, the average Alamar Blue fluorescence signals from the control wells were set as 100% non-toxic. The individual signals in each of the compound test wells were then divided by the average control signal and multiplied by 100% to determine […]. To calculate the HCV replicon inhibition values, an average background value was obtained from the two wells containing the highest amount of HCV control inhibitor at the end of the assay period. These numbers were similar to those obtained from naïve Huh-7 cells. The background numbers were then subtracted from the average signal obtained from the control wells and this number was used as 100% activity. The individual signals in each of the compound test wells were then divided by the averaged control values after background subtraction and multiplied by 100% to determine percent activity. […] The two numbers generated for the compound plate, percent cytoxicity and percent activity, were used to determine compounds of interest for further analysis.

[2] = HCV NS5B RdRp genotype 1b enzyme
[3] = HCV replicon cells, FRET or luciferase activity

T1 sequence (Q9WMX2 2420-2992): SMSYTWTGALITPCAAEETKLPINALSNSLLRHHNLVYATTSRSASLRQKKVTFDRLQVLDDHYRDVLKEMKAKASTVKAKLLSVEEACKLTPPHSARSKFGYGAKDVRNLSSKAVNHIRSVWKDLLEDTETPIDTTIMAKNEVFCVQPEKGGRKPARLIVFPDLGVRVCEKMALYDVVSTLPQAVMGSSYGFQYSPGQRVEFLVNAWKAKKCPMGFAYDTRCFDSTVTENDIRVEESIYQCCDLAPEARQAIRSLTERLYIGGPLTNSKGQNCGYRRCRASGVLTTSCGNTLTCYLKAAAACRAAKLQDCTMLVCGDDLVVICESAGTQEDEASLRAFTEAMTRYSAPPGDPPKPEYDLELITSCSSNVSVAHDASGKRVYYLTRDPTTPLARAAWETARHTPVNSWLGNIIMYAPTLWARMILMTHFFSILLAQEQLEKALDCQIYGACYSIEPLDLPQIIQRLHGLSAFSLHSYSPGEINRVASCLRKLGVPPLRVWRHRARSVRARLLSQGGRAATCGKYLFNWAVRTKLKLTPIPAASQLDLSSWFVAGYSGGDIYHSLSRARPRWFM

SMILES | IC50 [1] [nM] | EC50 (HCV replicon cells; Hepatitis C virus) [nM] | IC50 [1, 2] [nM] | EC50 (HCV replicon cells; [3]) [nM] | also measured
CCN(CC)C(=O)N1CC2CCC(C1)N2C(=O)C12CC1c1cc(OC)ccc1-c1c(C3CCCCC3)c3ccc(C(=O)NS(=O)(=O)C4CC4)cc3n1C2 (stereo not shown) [drawing 92] | 1 to 500 | 1 to 500 | – | – | –
CCN(CC)C(=O)N1CC2CCC(C1)N2C(=O)C12CC1c1cc(OC)ccc1-c1c(C3CCCCC3)c3ccc(C(=O)NS(=O)(=O)N4CCN(C)CC4)cc3n1C2 (stereo not shown) [drawing 93] | 1 to 500 | 1 to 500 | – | – | –
COc1ccc2c(c1)C1CC1(C(=O)NC1CC3CCC(C1)N3C)Cn1c-2c(C2CCCCC2)c2ccc(C(=O)NS(=O)(=O)N(C)C)cc21 (stereo not shown) [drawing 64] | – | – | 1 to 500 | 1 to 500 | –
CNS(=O)(=O)NC(=O)c1ccc2c(C3CCCCC3)c3n(c2c1)CC1(C(=O)N2C4CCC2CN(C)C4)CC1c1cc(OC)ccc1-3 (stereo not shown) [drawing 29] | 1 to 500 | 1 to 500 | – | – | –
COc1ccc2c(c1)C1CC1(C(=O)N1CC3CCC(C1)N3C(C)C)Cn1c-2c(C2CCCCC2)c2ccc(C(=O)NS(=O)(=O)N(C)C)cc21 (stereo not shown) | < 20 | 1 to 500 | – | – | –
COc1ccc2c(c1)[C@@H]1CC1(C(=O)N1C3CCC1CN(C)C3)Cn1c-2c(C2CCCCC2)c2ccc(C(=O)NS(=O)(=O)C3CCC3)cc21 (stereo partly shown) | 1 to 500 | – | – | – | EC50 (HCV replicon cells; Hepatitis C virus, HCV replicon cells, FRET or luciferase activity, read-out: EC50): 1 to 500 nM
CCC(C)S(=O)(=O)NC(=O)c1ccc2c(C3CCCCC3)c3n(c2c1)C[C@@]1(C(=O)N2C4CCC2CN(C)C4)C[C@H]1c1cc(OC)ccc1-3 (stereo partly shown) [drawing 132] | 1 to 500 | 1 to 500 | – | – | –
CNS(=O)(=O)NC(=O)c1ccc2c(C3CCCCC3)c3n(c2c1)CC1(C(=O)N2C4CCC2CN(C)C4)CC1c1cc(OC)ccc1-3 (stereo not shown) [drawing 50] | – | – | 1 to 500 | 1 to 500 | –
COc1ccc2c(c1)C1CC1(C(=O)N1CC3CCC(C1)N3)Cn1c-2c(C2CCCCC2)c2ccc(C(=O)NS(=O)(=O)N(C)C)cc21 (stereo not shown) | 1 to 500 | 1 to 500 | – | – | –
CCC(C)S(=O)(=O)NC(=O)c1ccc2c(C3CCCCC3)c3n(c2c1)CC(C(=O)N1C2CCC1CN(C)C2)=Cc1cc(OC)ccc1-3 (stereo not shown) | 1 to 500 | 1 to 500 | – | – | –
COc1ccc2c(c1)C1CC1(C(=O)N1C3CCC1CN(C)C3)Cn1c-2c(C2CCCCC2)c2ccc(C(=O)NS(=O)(=O)C(F)(F)F)cc21 (stereo not shown) | 1 to 500 | 1 to 500 | – | – | –
COc1ccc2c(c1)C1CC1(C(=O)N1C3CCC1CN(C)C3)Cn1c-2c(C2CCCCC2)c2ccc(C(=O)NS(=O)(=O)N(C)C)cc21 (stereo not shown) [drawing 24] | – | – | – | – | IC50 ([1]; HCV NS5B RdRp genotype 1b enzyme, read-out: IC50): 1 to 500 nM; EC50 (HCV replicon cells; HCV replicon cells, FRET or luciferase activity, read-out: EC50): 1 to 500 nM
CN1CC2CCC(C1)N2C(=O)C1=Cc2c(OC(F)(F)F)cccc2-c2c(C3CCCCC3)c3ccc(C(=O)NS(=O)(=O)N(C)C)cc3n2C1 | > 500 | > 500 | – | – | –
CCC(C)S(=O)(=O)NC(=O)c1ccc2c(C3CCCCC3)c3n(c2c1)C[C@@]1(C(=O)N2C4CCC2CN(C)C4)C[C@H]1c1cc(OC)ccc1-3 (stereo partly shown) [drawing 133] | – | – | 1 to 500 | 1 to 500 | –
COc1ccc2c(c1)[C@@H]1C[C@]1(C(=O)N1[C@@H]3CC[C@H]1CN(S(C)(=O)=O)C3)Cn1c-2c(C2CCCCC2)c2ccc(C(=O)NS(=O)(=O)N(C)C)cc21 | 1 to 500 | 1 to 500 | – | – | –
COc1ccc2c(c1)C1CC1(C(=O)N1C3CCC1CN(C)C3)Cn1c-2c(C2CCCCC2)c2ccc(C(=O)NS(=O)(=O)N3CCOCC3)cc21 (stereo not shown) [drawing 53] | – | – | 1 to 500 | 1 to 500 | –
COc1ccc2c(c1)C1CC1(C(=O)N1C3CCC1CN(C)C3)Cn1c-2c(C2CCCCC2)c2ccc(C(=O)NS(=O)(=O)N3CCC3)cc21 (stereo not shown) [drawing 30] | – | – | 1 to 500 | 1 to 500 | –
COc1ccc2c(c1)C1CC1(C(=O)N1C3CCC1CN(C)C3)Cn1c-2c(C2CCCCC2)c2ccc(C(=O)NS(=O)(=O)N(C)C3CC3)cc21 (stereo not shown) [drawing 99] | 1 to 500 | 1 to 500 | – | – | –
COc1ccc2c(c1)C1CC1(C(=O)N1C3CCC1CN(C)C3)Cn1c-2c(C2CCCCC2)c2ccc(C(=O)NS(=O)(=O)N3CCN(C)CC3)cc21 (stereo not shown) [drawing 32] | 1 to 500 | 1 to 500 | – | – | –
CCN(C)S(=O)(=O)NC(=O)c1ccc2c(C3CCCCC3)c3n(c2c1)CC1(C(=O)N2C4CCC2CN(C)C4)CC1c1cc(OC)ccc1-3 (stereo not shown) [drawing 109] | – | – | 1 to 500 | 1 to 500 | –
COc1ccc2c(c1)C1CC1(C(=O)N1C3CCC1CN(C(C)C)C3)Cn1c-2c(C2CCCCC2)c2ccc(C(=O)NS(=O)(=O)N(C)C)cc21 (stereo not shown) [drawing 62] | – | – | 1 to 500 | 1 to 500 | –
COc1ccc2c(c1)C1CC1(C(=O)N1C3CCC1CN(C)C3)Cn1c-2c(C2CCCCC2)c2ccc(C(=O)NS(=O)(=O)NC3CC3)cc21 (stereo not shown) [drawing 42] | 1 to 500 | 1 to 500 | – | – | –
COc1ccc2c(c1)C1CC1(C(=O)N1C3CCC1CN(C)C3)Cn1c-2c(C2CCCCC2)c2ccc(C(=O)NS(=O)(=O)N3CCN(C)CC3)cc21 (stereo not shown) [drawing 54] | – | – | 1 to 500 | 1 to 500 | –
COc1ccc2c(c1)C1CC1(C(=O)N1C3CCC1CNC3)Cn1c-2c(C2CCCCC2)c2ccc(C(=O)NS(=O)(=O)N(C)C)cc21 (stereo not shown) [drawing 59] | – | – | 1 to 500 | 1 to 500 | –
COc1ccc2c(c1)C1CC1(C(=O)N1CC3CCC(C1)N3C)Cn1c-2c(C2CCCCC2)c2ccc(C(=O)NS(=O)(=O)N(C)C)cc21 (stereo not shown) | 1 to 500 | 1 to 500 | – | – | –
CCCCS(=O)(=O)NC(=O)c1ccc2c(C3CCCCC3)c3n(c2c1)CC1(C(=O)N2C4CCC2CN(C)C4)CC1c1cc(OC)ccc1-3 (stereo not shown) | 1 to 500 | 1 to 500 | – | – | –
